16 molecules from PubChem BioAssay (NCI) can be followed below.

Test systems include SK-MEL-5 melanoma; HOP-62 NSCLC; U251 CNS; OVCAR-8 ovarian; HCT-116 colon; NCI-H460 lung; A498 renal; SN12C renal; ACHN renal.
Common to all, as to experiment: DTP human tumour cell line panel, 48 h

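Cultured in 96-well plates, cells were exposed to test compound for 48 hours across five concentrations. TGI: total growth inhibition.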

Take `CCCCCCCCCCCC(=O)OCCOCCOCCOCCOCCOCc1ccc(OC)cc1`: the concentration for total growth inhibition (TGI) with SK-MEL-5 melanoma, with HOP-62 NSCLC, in the test on U251 CNS, in the test on OVCAR-8 ovarian, with HCT-116 colon and with NCI-H460 lung was greater than 100 µM throughout. The concentration for total growth inhibition (TGI) in the test on A498 renal, in the test on SN12C renal and in the test on ACHN renal was greater than 100 µM each time.

As for `CCOC(=O)C1Oc2ccc([N+](=O)[O-])c3c2C1(O)CCC3` (configuration not stated), the total growth inhibition concentration (TGI) with SK-MEL-5 melanoma, in the test on HOP-62 NSCLC, in the test on U251 CNS, in the test with OVCAR-8 ovarian, in the test on NCI-H460 lung and with A498 renal was greater than 100 µM in each case. Also, the total growth inhibition concentration (TGI) in the test on SN12C renal and in the test on ACHN renal was greater than 100 µM each time.

On to `N#CC(C(=O)CCC(=O)Nc1cccc(Cl)c1)c1ccccc1` (configuration not stated), for which the concentration for total growth inhibition (TGI) in the test on SK-MEL-5 melanoma, in the test with HOP-62 NSCLC, with U251 CNS, in the test with OVCAR-8 ovarian, in the test with HCT-116 colon and in the test on NCI-H460 lung was greater than 100 µM in each case. The total growth inhibition concentration (TGI) with A498 renal, in the test on SN12C renal and in the test with ACHN renal was greater than 100 µM throughout.

Take `CCCCCCc1cc(C(=O)Nc2cccc(C(F)(F)F)c2)nc(N)n1`: the TGI in the test with SK-MEL-5 melanoma, in the test with HOP-62 NSCLC, in the test with U251 CNS, in the test on HCT-116 colon, in the test with NCI-H460 lung and in the test with A498 renal was greater than 100 µM throughout. The TGI with SN12C renal and with ACHN renal was greater than 100 µM throughout.

Turning to `CSCC1CC(c2ccc(Cl)cc2)=NO1` (configuration not stated), the TGI with SK-MEL-5 melanoma, in the test on HOP-62 NSCLC, in the test with U251 CNS, in the test on OVCAR-8 ovarian, in the test with HCT-116 colon and in the test on NCI-H460 lung was greater than 100 µM in each case. The TGI with A498 renal, in the test with SN12C renal and with ACHN renal was greater than 100 µM each time.

With `C[Si](C)(C)OC1(C#N)C2C3CC4C2C(=O)C2C4C3C21` (configuration not stated), the TGI in the test on SK-MEL-5 melanoma, in the test on HOP-62 NSCLC, in the test with U251 CNS, in the test on OVCAR-8 ovarian, with HCT-116 colon and in the test on NCI-H460 lung was greater than 100 µM each time. For the same molecule, the TGI in the test on A498 renal, with SN12C renal and in the test with ACHN renal was greater than 100 µM each time.

In the case of `CCC1CN2CCc3cc(OC)c(OC)cc3C2CC1CC1c2cc(OC)c(OC)cc2CCN1C(=O)C1CCCN1C(=O)OCc1ccccc1` (configuration not stated), the concentration for total growth inhibition (TGI) with SK-MEL-5 melanoma was 28.8 µM; in the test on HOP-62 NSCLC it was 31.8 µM; with U251 CNS, 28.3 µM; in the test with OVCAR-8 ovarian, 31.7 µM; in the test on HCT-116 colon, 25.8 µM; with NCI-H460 lung, 30.2 µM. Also, the TGI stood at 29.9 µM in the test with A498 renal, 30.6 µM in the test on SN12C renal and 32.1 µM with ACHN renal.

With `c1ccc(SC(CCCCC(Sc2ccccc2)Sc2ccccc2)Sc2ccccc2)cc1`, the TGI in the test on SK-MEL-5 melanoma, in the test on HOP-62 NSCLC, in the test with U251 CNS, with OVCAR-8 ovarian, with HCT-116 colon and with NCI-H460 lung was greater than 100 µM in each case. The TGI in the test with A498 renal, with SN12C renal and in the test on ACHN renal was greater than 100 µM in each case.

On to `O=C1C(=O)N(c2ccc(Cl)c(Cl)c2)C(=O)C(=O)C1c1nc2ccccc2s1`, for which the concentration for total growth inhibition (TGI) in the test on SK-MEL-5 melanoma, in the test with HOP-62 NSCLC, in the test on U251 CNS, in the test on OVCAR-8 ovarian, in the test with HCT-116 colon and in the test with A498 renal was greater than 100 µM each time. The concentration for total growth inhibition (TGI) with SN12C renal and with ACHN renal was greater than 100 µM each time.

Take `Cc1cc(N(CCC#N)CCC#N)ccc1/C=C/C(=O)Nc1cccc(Cl)c1`: the concentration for total growth inhibition (TGI) with SK-MEL-5 melanoma, with HOP-62 NSCLC, in the test on U251 CNS, with OVCAR-8 ovarian, in the test with HCT-116 colon and in the test on NCI-H460 lung was greater than 100 µM each time. In addition, the TGI in the test with A498 renal, in the test on SN12C renal and with ACHN renal was greater than 100 µM in each case.

For `C=C1COC(/C=C(\C)CC/C=C(\C)CCl)C1` (configuration not stated), the TGI with SK-MEL-5 melanoma, with HOP-62 NSCLC, in the test on U251 CNS, with OVCAR-8 ovarian, with HCT-116 colon and in the test on NCI-H460 lung was greater than 100 µM in each case. Besides, the TGI with A498 renal, in the test on SN12C renal and with ACHN renal was greater than 100 µM throughout.

With `C=CCc1cc(OC)c2c(c1)C(O)CC(c1ccccc1)O2` (configuration not stated), the TGI in the test on SK-MEL-5 melanoma, in the test on HOP-62 NSCLC, with U251 CNS, in the test on OVCAR-8 ovarian, in the test on HCT-116 colon and in the test with NCI-H460 lung was greater than 100 µM in each case. Moreover, the TGI in the test with SN12C renal and in the test with ACHN renal was greater than 100 µM in each case.

`COc1ccc(N=c2ssc3c(=S)ssc23)cc1`: the TGI in the test with SK-MEL-5 melanoma is 57.1 µM; in the test with HOP-62 NSCLC, greater than 100 µM; in the test with U251 CNS it was 96.7 µM; with OVCAR-8 ovarian, 43.9 µM; in the test on HCT-116 colon, greater than 100 µM; in the test on SN12C renal, greater than 100 µM. The TGI in the test with ACHN renal was greater than 100 µM.

Take `Cn1cnc2nc(Cl)nc(NC(C)(C)C(C)(C)O)c21`: the concentration for total growth inhibition (TGI) in the test with SK-MEL-5 melanoma, in the test on HOP-62 NSCLC, with U251 CNS, with OVCAR-8 ovarian, in the test with HCT-116 colon and with NCI-H460 lung was greater than 100 µM each time. Moreover, the TGI in the test with A498 renal, in the test on SN12C renal and in the test with ACHN renal was greater than 100 µM in each case.

Consider `O=C(O)C1(P(=O)(O)O)CC1`, for which the concentration for total growth inhibition (TGI) in the test with SK-MEL-5 melanoma, in the test on HOP-62 NSCLC, with U251 CNS, in the test with OVCAR-8 ovarian, in the test on HCT-116 colon and in the test on NCI-H460 lung was greater than 100 µM in each case. Further, the TGI in the test with A498 renal, with SN12C renal and with ACHN renal was greater than 100 µM in each case.

In the case of `O=C1OC(CCCl)(c2ccccc2)CC1CN1CCOCC1` (configuration not stated), the TGI is 41.7 µM in the test on SK-MEL-5 melanoma; greater than 100 µM with HOP-62 NSCLC; greater than 100 µM in the test with U251 CNS; 38.5 µM with OVCAR-8 ovarian; greater than 100 µM in the test with NCI-H460 lung; greater than 100 µM with A498 renal. Further, the figures for the concentration for total growth inhibition (TGI) with SN12C renal and in the test on ACHN renal were 90.7 µM and greater than 100 µM, respectively.
